We go through 58 compounds from ChEMBL document CHEMBL3272151, “Quantitative structure-activity relationship of chymotrypsin-ligand interactions” (J Med Chem, 1977).

The nature of test [1]: Binding affinity to chymotrypsin (unknown origin) assessed as acetylation at pH 7. The note with it: Homo sapiens.
The nature of test [2]: Binding affinity to chymotrypsin (unknown origin) assessed as acetylation at pH 6. The following applies: Homo sapiens.
A short description of test [3]: Binding affinity to chymotrypsin (unknown origin) assessed as deacetylation. The following applies: Homo sapiens.
Test [4] can be described thus: Binding affinity to alpha-chymotrypsin (unknown origin). The following applies: Homo sapiens.
A short description of test [5]: Binding affinity to alpha-chymotrypsin (unknown origin) assessed as hydrolysis. The note with it: Homo sapiens.
A short description of test [6]: Binding affinity to chymotrypsin (unknown origin) assessed as hydrolysis. The note with it: Homo sapiens.
Test [7] in a line: Binding affinity to chymotrypsin (unknown origin). The following applies: Homo sapiens.
Test [8] in a line: Inhibition of chymotrypsin (unknown origin). The note with it: Homo sapiens.

Description for Homo sapiens: Inhibition of alpha-chymotrypsin (unknown origin)

For `O=C(Oc1ccc([N+](=O)[O-])cc1)c1ccc(F)cc1`, the results for the log K in test [1] and in test [2] were 3.11 and 2.74, respectively.

Regarding `O=C(Oc1ccc([N+](=O)[O-])cc1)c1cccc(F)c1`, the log K in [1] was 3.6; in test [3], -0.35; in test [2], 3.17.

With `CCC(=O)NCC(=O)OC`, the log(1/Km) in test [4] was determined as 1.42. Moreover, in test [5], the logKcat is -1.74.

For the compound `COC(=O)CNC(=O)CCl`, the log(1/Km) in test [4] was 1.16. Moreover, the logKcat in [6] is -1.26.

As for `COC(=O)[C@H](Cc1ccc(O)cc1)NC(C)=O`, the log(1/Km) in test [4] was determined as 3.49. The logKcat in test [5] worked out at 2.07.

In the case of `COC(=O)CNC(=O)c1ccc(N)cc1`, in test [4], the log(1/Km) worked out at 2.08. The logKcat in test [5] is -1.39.

Consider `O=C(Oc1ccc([N+](=O)[O-])cc1)c1ccc(C(F)(F)F)cc1`, for which the log K in test [1] was 3.95; in test [3] it was -2.69; in [2], 3.41.

The compound `COC(=O)CNS(C)(=O)=O` returned a log(1/Km) in [4] of 1.07. The logKcat in test [5] was -1.92.

In the test filed under Homo sapiens, `Cc1ccccc1` showed a log1/Ki of 2.55.

For `c1ccc2cc3ccccc3cc2c1`, in the test listed under Homo sapiens, the log1/Ki is 5.26.

Consider `COC(=O)CNC(=O)c1ccco1`, for which the log(1/Km) in test [4] is 1.71. In test [5], the logKcat was -0.01.

As for `COC(=O)[C@@H](NC(=O)CCl)C(C)C`, in test [6], the logKcat is -0.9. For the same compound, the log(1/Km) in test [7] came to 1.37. Moreover, the log K in test [1] was -0.49; in [3], -0.68.

`O=C(O)CCc1ccccc1` yielded a log1/Ki in [8] of 2.79.

For the compound `CC[C@H](NC(=O)c1ccccc1)C(=O)OC`, in [6], the logKcat is -0.49. Moreover, the log(1/Km) in test [7] amounted to 2.85. Moreover, the log K in [1] was -0.39; in test [3], 0.18.

`c1ccc2ccccc2c1` had a log1/Ki in the test filed under Homo sapiens of 3.93.

`C1=Cc2ccccc2C1` registered a log1/Ki in test [8] of 3.67.

In test [4], `COC(=O)CNC(=O)c1ccccn1` yielded a log(1/Km) of 2. The logKcat in test [5] came to 0.39.

Turning to `C1=CCCCC1`, the log1/Ki in [8] amounted to 2.07.

In the case of `O=C(O)c1ccc2ccccc2c1`, in test [8], the log1/Ki worked out at 3.86.

As for `COC(=O)[C@H](Cc1ccc(O)cc1)NC(=O)c1ccccc1`, the logKcat in [6] stood at 1.96. The compound further had a log(1/Km) in [7] of 4.74. Further, the values for the log K in [1] and in test [3] were 2.56 and 2.08, respectively.

As to `CCC[C@H](NC(=O)c1ccccc1)C(=O)OC`, in test [6], the logKcat amounted to 0.39. This compound also showed a log(1/Km) in [7] of 3.07. The log K in test [1] worked out at 0.62; in test [3] it was 0.77.

`COC(=O)CNC(=O)C(Cl)Cl`: the log(1/Km) in [4] is 1.66. Moreover, in test [5], the logKcat is -1.64.

Take `O=C(Oc1ccc([N+](=O)[O-])cc1)c1ccccc1`: the log K in test [1] is 3.16; in test [3] it was -3.69; in test [2], 2.64.

With `COC(=O)[C@H](Cc1ccccc1)NC(=O)c1ccccc1`, the logKcat in test [6] is 1.49. This compound also yielded a log(1/Km) in test [7] of 4.46. Also, the log K came to 1.66 in test [1] and 1.96 in test [3].

Compound `COC(=O)CNC(=O)c1ccncc1` showed a log(1/Km) in [4] of 1.75. In addition, the logKcat in [5] was -0.8.

In test [4], `COC(=O)CNC(=O)C(C)C` yielded a log(1/Km) of 1.34. The logKcat in test [5] is -1.68.

For `Cc1cccc(C(=O)O)c1`, in [8], the log1/Ki stood at 2.42.

On to `CCc1ccc(C(=O)Oc2ccc([N+](=O)[O-])cc2)cc1`, for which the log K in test [1] turned out to be 3.97; in test [2], 3.87.

Turning to `O=C(O)CCCc1ccccc1`, in test [8], the log1/Ki is 3.22.

The compound `COC(=O)CNC(=O)C(F)(F)F` registered a log(1/Km) in [4] of 1.27. For the same compound, in test [5], the logKcat was -1.07.

Turning to `COC(=O)CNC(=O)c1c[nH]c2ccccc12`, the log(1/Km) in test [4] came to 2.86. In addition, the logKcat in test [6] is -1.25.

On to `CCOC(=O)[C@H](Cc1ccccc1)NC(C)=O`, for which the logKcat in test [6] was 1.84. This compound had a log(1/Km) in test [7] of 2.96. Also, the log K in test [1] was 2.42; in test [3], 1.97.

Regarding `CCCCC`, the log1/Ki in test [8] is 2.25.

For `N#Cc1ccc(C(=O)Oc2ccc([N+](=O)[O-])cc2)cc1`, the log K in test [1] is 3.94; in [2], 3.35.

Consider `Clc1ccccc1`, for which the log1/Ki in the test listed under Homo sapiens was 3.09.

Turning to `O=C(Oc1ccc([N+](=O)[O-])cc1)c1ccc([N+](=O)[O-])cc1`, the log K is 3.96 in [1], -3.44 in test [3] and 3.55 in [2].

Regarding `COC(=O)CNC(=O)c1ccccc1`, the log(1/Km) in [4] worked out at 2.12. In addition, in [6], the logKcat is -0.9. Further, in test [1], the log K was -0.38.

For the compound `O=C(O)c1ccccc1`, in test [8], the log1/Ki is 1.99.

Take `CCSCC(=O)NCC(=O)OC`: the log(1/Km) in test [4] turned out to be 1.98. Besides, the logKcat in [5] was -2.27.

For `COc1ccc(C(=O)Oc2ccc([N+](=O)[O-])cc2)cc1`, the log K in test [1] is 2.97; in test [3] it was -4.39; in [2], 2.78.

Regarding `CC[C@H](NC(C)=O)C(=O)OC`, the logKcat in test [6] came out at 0.02. For the same compound, the log(1/Km) in test [7] is 1.28. Moreover, the log K is 0.94 in test [1] and 0.22 in test [3].

In the case of `COC(=O)CNC(C)=O`, the log(1/Km) in test [4] was found to be 1.51. In addition, in test [1], the log K is -0.31. Moreover, in test [5], the logKcat was -1.89.

On to `COC(=O)[C@@H](NC(C)=O)C(C)C`, for which, in test [6], the logKcat was -0.82. In [7], the log(1/Km) is 0.95. The log K in test [1] is -0.01; in [3], -0.68.

Regarding `Cc1ccc(C(=O)Oc2ccc([N+](=O)[O-])cc2)cc1`, the log K stood at 3.31 in test [1] and 2.85 in test [2].

`O=C(Oc1ccc([N+](=O)[O-])cc1)c1ccc(Cl)cc1`: the log K in [1] is 3.56; in test [3], -3.48; in test [2] it was 3.27.

Turning to `Cc1ccc(C(=O)O)cc1`, in [8], the log1/Ki was determined as 2.43.

In turn, `CCOC(=O)NCC(=O)OC` displayed a log(1/Km) in test [4] of 1.19. Moreover, the logKcat in [5] is -0.88.

As to `COC(=O)[C@H](Cc1ccccc1)NC(C)=O`, the logKcat in test [6] came to 1.72. This compound also returned a log(1/Km) in test [7] of 2.9. The log K in test [1] was found to be 2.9; in [3] it was 2.04.

On to `CCc1ccccc1`, for which the log1/Ki in the test filed under Homo sapiens is 2.74.

As for `COC(=O)CNC(=O)c1cccnc1`, in [4], the log(1/Km) is 1.5. The logKcat in test [5] is -0.34.

As to `O=C(Oc1ccc([N+](=O)[O-])cc1)c1cccc(Cl)c1`, the log K is 3.77 in [1] and 3.43 in test [2].

For `COC(=O)CNC(=O)Cc1ccccc1`, in test [4], the log(1/Km) turned out to be 2.1. Further, in [5], the logKcat is -2.22.

`CCOC(=O)CNC(C)=O`: in [7], the log(1/Km) turned out to be 1.2. Also, the log K in test [1] is -1.03. Further, in test [5], the logKcat is -1.42.

Take `CC(=O)N[C@H](C(=O)OC(C)C)C(C)C`: the logKcat in [6] is -1.08. The same compound had a log(1/Km) in [7] of 0.75. The log K is -0.75 in test [1] and -0.68 in test [3].

In the case of `O=[N+]([O-])c1ccccc1`, the log1/Ki in the test listed under Homo sapiens came to 3.02.

`COC(=O)CNC(=O)CC(C)C` had a log(1/Km) in test [4] of 1.62. The logKcat in test [5] was -1.6.

Regarding `O=C(Oc1ccc([N+](=O)[O-])cc1)c1cccc(C(F)(F)F)c1`, the log K came out at 3.59 in test [1] and 3.22 in [2].

Regarding `CC(C)(C)c1ccc(C(=O)O)cc1`, the log1/Ki in test [8] came to 3.89.
